From patent US20220396565A1 (Hoffmann-La Roche Inc., priority 2020, published 2022)
Structures can show the parent of a compound that is named as a salt.

Test system: Acinetobacter baumannii ATCC17961
Test: Antimicrobial susceptibility testing: 90% growth inhibitory concentration (IC90) determination, Iso-Sensitest broth
Assay type: cell-based
Conditions: Acinetobacter baumannii, ATCC17961, 90% growth inhibitory concentration, Acinetobacter baumannii ATCC17961, Iso-Sensitest broth; read-out: ATCC 17961 IC90
Description: The in vitro antimicrobial activity of the compounds was determined according to the following procedure:
The assay used a 10-points Iso-Sensitest broth medium to measure quantitatively the in vitro activity of the compounds against Acinetobacter baumannii ATCC17978 or ATCC17961.
Stock compounds in DMSO were serially twofold diluted (e.g. range from 10 to 0.02 μM final concentration) in 384 wells microtiter plates and inoculated with 49 μl the bacterial suspension in Iso-Sensitest medium to have a final cell concentration of ˜5×10^(5) CFU/ml in a final volume/well of 50 ul/well. Microtiter plates were incubated at 35±2° C.
Bacterial cell growth was determined with the measurement of optical density at k=600 nm each 20 minutes over a time course of 16 h. Growth inhibition was calculated during the logarithmic growth of the bacterial cells with determination of the concentration inhibiting 50% (IC50) and 90% (IC90) of the growth.
Table 1 provides the 90% growth inhibitory concentrations (IC90) in micromoles per liter of the compounds of present invention obtained against the strain Acinetobacter baumannii ATCC17978 or ATCC17961.

IC90 [µM]	Structure (SMILES)
0.04	Cn1c(-c2ccc(OC(F)F)c(F)c2Cl)cnc1C(=O)Nc1ccc(C(=O)N2CCN(C(=O)C[C@@H]3CCNC3)CC2)c(Cl)c1 [Example 147, 5-[2-chloro-4-(difluoromethoxy)-3-fluoro-phenyl]-N-[3-chloro-4-[4-[2-[(3S)-pyrrolidin-3-yl]acetyl]piperazine-1-carbonyl]phenyl]-1-methyl-imidazole-2-carboxamide formate]
0.11	COc1ccc(-c2cnc(C(=O)Nc3ccc(C(=O)N4CC(NC(=O)C5CCNCC5)C4)c(Cl)c3)n2C)c(F)c1F [Example 187, N-[1-[2-chloro-4-[[5-(2,3-difluoro-4-methoxy-phenyl)-1-methyl-imidazole-2-carbonyl]amino]benzoyl]azetidin-3-yl]piperidine-4-carboxamide formate]
0.04	COc1ccc(-c2cnc(C(=O)Nc3ccc(C(=O)N4CCN(C(=O)CC5CNC(=O)C5)CC4)c(Cl)c3)n2C)c(F)c1F (centres unmarked) [Example 129, N-[3-chloro-4-[4-[2-(5-oxopyrrolidin-3-yl)acetyl]piperazine-1-carbonyl]phenyl]-5-(2,3-difluoro-4-methoxy-phenyl)-1-methyl-imidazole-2-carboxamide]
0.03	Cn1c(-c2ccc(OCF)c(F)c2F)cnc1C(=O)Nc1ccc(C(=O)N2CCN(C(=O)C3CCNCC3)CC2)c(Cl)c1 [Example 143, N-[3-chloro-4-[4-(piperidine-4-carbonyl)piperazine-1-carbonyl]phenyl]-5-[2,3-difluoro-4-(fluoromethoxy)phenyl]-1-methyl-imidazole-2-carboxamide formate]
0.08	COc1ccc(-c2cnc(C(=O)Nc3ccc(C(=O)N4CCN(C(=O)C[C@@H]5CCNC5)CC4)c(Cl)c3)n2C)c(C(F)F)c1F [Example 261, N-[3-chloro-4-[4-[2-[(3S)-pyrrolidin-3-yl]acetyl]piperazine-1-carbonyl]phenyl]-5-[2-(difluoromethyl)-3-fluoro-4-methoxy-phenyl]-1-methyl-imidazole-2-carboxamide formate]
0.05	COc1ccc(-c2cnc(C(=O)Nc3ccc(C(=O)N4CCC(C(=O)N[C@@H]5CNC[C@H]5O)CC4)c(Cl)c3)n2C)c(F)c1F [Example 60, 1-[2-chloro-4-[[5-(2,3-difluoro-4-methoxy-phenyl)-1-methyl-imidazole-2-carbonyl]amino]benzoyl]-N-[(3R,4R)-4-hydroxypyrrolidin-3-yl]piperidine-4-carboxamide formate]
0.04	Cn1c(-c2ccc(OCF)c(F)c2F)cnc1C(=O)Nc1ccc(C(=O)N2CCC(C(=O)NC[C@@H]3CCNC3)CC2)c(Cl)c1 [Example 54, 1-[2-chloro-4-[[5-[2,3-difluoro-4-(fluoromethoxy)phenyl]-1-methyl-imidazole-2-carbonyl]amino]benzoyl]-N-[[(3R)-pyrrolidin-3-yl]methyl]piperidine-4-carboxamide formate]
0.15	Cn1c(-c2ccc(OCC#N)c(F)c2F)cnc1C(=O)Nc1ccc(C(=O)N2CCC(C(=O)N3CC4(CNC4)C3)CC2)c(Cl)c1 [Example 85, N-(4-(4-(2,6-diazaspiro[3.3]heptane-2-carbonyl)piperidine-1-carbonyl)-3-chlorophenyl)-5-(4-(cyanomethoxy)-2,3-difluorophenyl)-1-methyl-1H-imidazole-2-carboxamide 2,2,2-trifluoroacetate]
0.03	Cn1c(-c2ccc(OCF)c(F)c2F)cnc1C(=O)Nc1ccc(C(=O)N2CCN(C(=O)C3(O)CCNCC3)CC2)c(Cl)c1 [Example 162, N-[3-chloro-4-[4-(4-hydroxypiperidine-4-carbonyl)piperazine-1-carbonyl]phenyl]-5-[2,3-difluoro-4-(fluoromethoxy)phenyl]-1-methyl-imidazole-2-carboxamide formate]
0.07	COc1ccc(-c2cnc(C(=O)Nc3ccc(C(=O)N4CCN(C(=O)C5CCNCC5)CC4)c(Cl)c3)n2C)c(F)c1F [Example 265, N-[3-chloro-4-[4-(piperidine-4-carbonyl)piperazine-1-carbonyl]phenyl]-5-(2,3-difluoro-4-methoxy-phenyl)-1-methyl-imidazole-2-carboxamide hydrochloride]
0.1	COc1ccc(-c2cnc(C(=O)Nc3ccc(C(=O)N4CCN(C(=O)CC5CCC(=O)N5)CC4)c(Cl)c3)n2C)c(F)c1F (centres unmarked) [Example 127, N-[3-chloro-4-[4-[2-(5-oxopyrrolidin-2-yl)acetyl]piperazine-1-carbonyl]phenyl]-5-(2,3-difluoro-4-methoxy-phenyl)-1-methyl-imidazole-2-carboxamide]
0.04	Cn1c(-c2ccc(OC(F)F)c(F)c2F)cnc1C(=O)Nc1ccc(C(=O)N2CCC(C(=O)NC3CCNCC3)CC2)c(Cl)c1 [Example 94, 1-(2-chloro-4-(5-(4-(difluoromethoxy)-2,3-difluorophenyl)-1-methyl-1H-imidazole-2-carboxamido)benzoyl)-N-(piperidin-4-yl)piperidine-4-carboxamide formate]
0.25	COc1ccc(-c2cnc(C(=O)Nc3ccc(C(=O)N4CCN(C(=O)C[C@@H]5CCNC5)CC4)c(Cl)c3)n2C)c(C#N)c1F [Example 260, N-[3-chloro-4-[4-[2-[(3S)-pyrrolidin-3-yl]acetyl]piperazine-1-carbonyl]phenyl]-5-(2-cyano-3-fluoro-4-methoxy-phenyl)-1-methyl-imidazole-2-carboxamide formate]
0.18	C#CCNCCCNC(=O)C1CCN(C(=O)c2ccc(NC(=O)c3ncc(-c4ccc(OC)c(F)c4F)n3C)cc2CC)CC1 [Example 286, 1-[4-[[5-(2,3-difluoro-4-methoxy-phenyl)-1-methyl-imidazole-2-carbonyl]amino]-2-ethyl-benzoyl]-N-[3-(prop-2-ynylamino)propyl]piper-idine-4-carboxamide]
0.04	COc1ccc(-c2cnc(C(=O)Nc3ccc(C(=O)N4CCN(C(=O)CCCCN)CC4)c(Cl)c3)n2C)c(F)c1F [Example 124, N-[4-[4-(5-aminopentanoyl)piperazine-1-carbonyl]-3-chloro-phenyl]-5-(2,3-difluoro-4-methoxy-phenyl)-1-methyl-imidazole-2-carboxamide formate]
0.04	Cn1c(-c2ccc(OC(F)F)c(F)c2F)cnc1C(=O)Nc1ccc(C(=O)N2CCC(C(=O)N[C@@H]3CCNC3)CC2)c(Cl)c1 [Example 91, (R)-1-(2-chloro-4-(5-(4-(difluoromethoxy)-2,3-difluorophenyl)-1-methyl-1H-imidazole-2-carboxamido)benzoyl)-N-(pyrrolidin-3-yl)piperidine-4-carboxamide formate]
0.04	Cn1c(-c2ccc(OC(F)F)c(F)c2F)cnc1C(=O)Nc1ccc(C(=O)N2CCC(C(=O)N[C@@H]3CNC[C@H]3O)CC2)c(Cl)c1 [Example 96, 1-(2-chloro-4-(5-(4-(difluoromethoxy)-2,3-difluorophenyl)-1-methyl-1H-imidazole-2-carboxamido)benzoyl)-N-((3R,4R)-4-hydroxypyrrolidin-3-yl)piperidine-4-carboxamide formate]
0.59	COCCOc1ccc(-c2cnc(C(=O)Nc3ccc(C(=O)N4CCN(C(=O)C5CCNCC5)CC4)c(Cl)c3)n2C)c(F)c1F [Example 255, N-[3-chloro-4-[4-(piperidine-4-carbonyl)piperazine-1-carbonyl]phenyl]-5-[2,3-difluoro-4-(2-methoxyethoxy)phenyl]-1-methyl-imidazole-2-carboxamide formate]
0.13	CC[C@@]1(O)CN[C@H](C(=O)N2CCN(C(=O)c3ccc(NC(=O)c4ncc(-c5ccc(OCC#N)c(F)c5F)n4C)cc3C)CC2)C1 [Example 226, 5-[4-(cyanomethoxy)-2,3-difluoro-phenyl]-N-[4-[4-[(2S,4S)-4-ethyl-4-hydroxy-pyrrolidine-2-carbonyl]piperazine-1-carbonyl]-3-methyl-phenyl]-1-methyl-imidazole-2-carboxamide formate]
0.06	COc1ccc(-c2cnc(C(=O)Nc3ccc(C(=O)N4CCC(NS(=O)(=O)CCN)CC4)c(Cl)c3)n2C)c(F)c1F [Example 236, N-[4-[4-(2-aminoethylsulfonylami-no)piperidine-1-carbonyl]-3-chloro-phenyl]-5-(2,3-difluoro-4-methoxy-phenyl)-1-methyl-imidazole-2-carboxamide]
0.03	COc1ccc(-c2cnc(C(=O)Nc3ccc(C(=O)N4CCN(C(=O)CCCNC(=N)N)CC4)c(Cl)c3)n2C)c(F)c1F [Example 135, N-[3-chloro-4-[4-(4-guanidinobutanoyl)piperazine-1-carbonyl]phenyl]-5-(2,3-difluoro-4-methoxy-phenyl)-1-methyl-imidazole-2-carboxamide formate]

Structure (SMILES)	IC90 [µM]
Cn1c(-c2ccc(OC(F)F)c(F)c2F)cnc1C(=O)Nc1ccc(C(=O)N2CCC(C(=O)N[C@H]3CNC[C@@H]3O)CC2)c(Cl)c1 [Example 50, 1-[2-chloro-4-[[5-[4-(difluoromethoxy)-2,3-difluoro-phenyl]-1-methyl-imidazole-2-carbonyl]amino]benzoyl]-N-[(3S,4S)-4-hydroxypyrrolidin-3-yl]piperidine-4-carboxamide trifluoroacetate]	0.05

Same assay, conditions: Acinetobacter baumannii, ATCC17961, read-out: ATCC 17961 IC90

Structure (SMILES)	IC90 [µM]
COc1ccc(-c2cnc(C(=O)Nc3ccc(C(=O)N4CCN(C(=O)C5CCN(CCN)CC5)CC4)c(Cl)c3)n2C)c(F)c1F [Example 290, N-[4-[4-[1-(2-Aminoethyl)piperidine-4-carbonyl]piperazine-1-carbonyl]-3-chloro-phenyl]-5-(2,3-difluoro-4-methoxy-phenyl)-1-methyl-imidazole-2-carboxamide formate]	0.05
